Measured values taken from patent US10167299B2, “1-(3-aminopropyl) substituted cyclic amine compounds, preparation method therefor, and pharmaceutical compositions and uses thereof” (SHANGHAI INSTITUTE OF MATERIA MEDICA, CHINESE ACADEMY OF …, priority 2013, dated 2019).
Converted amounts (≈) assume the structure as drawn.

Columns and labels:
[1] = system: Salmonella typhimurium strain TA100; assay: Bacterial reverse mutation assay TA100 (-S9); format: cell-based; conditions: TA100, -S9, positive control 1300 μg/dish
Method: (§1) The mutagenic effects of compounds 18 and 22 of the present invention on Salmonella typhimurium strains TA98 and TA100 in non-metabolic activation (-S9) condition were determined. Two strains, TA98 and TA100 were chosen in bacterial reverse mutation assay for compounds 18 and 22. 9 doses containing […], negative and positive controls were set in experiments. 3 dishes were used for each dose. The experiment was carried out under -S9 condition.

hERG = hERG (Homo sapiens (Human), UniProt Q12809)
Method: CHO-hERG cells which have been incubated overnight were added with sample buffer and incubated for 90 minutes at room temperature in darkness.
The sample buffer was removed and assay buffer was added.
The compound is added to the cell plate and incubated for 20 minutes in darkness.
Cell plate was placed into FDSS. The fluorescence signal was recorded every second for 10 seconds. Exciting buffer was added to the cells at the 10th second and the fluorescence signal was recorded every second for 180 seconds

[2] = system: Salmonella typhimurium strain TA98; assay: Bacterial reverse mutation assay TA98 (-S9); format: cell-based; conditions: TA98, -S9, positive control 20 μg/dish
Method: as §1

[3] = Cytotoxicity (CC50) in TZM-bl cells; format: cell-based; conditions: human
CCR5 = CCR5 (Homo sapiens (Human), UniProt P51681); assay: Calcium flux inhibition experiment; format: cell-based; conditions: HEK293/CCR5-Gα16 cell line, calcium flux; read-out: CCR5 IC50
HIV-1SF162 virus strain = assay: Inhibition activity on TZM-bl cells infected with HIV-1SF162; conditions: for EC50: Human immunodeficiency virus 1, TZM-bl; for therapeutic index (TI): TZM-bl cells infected with HIV-1SF162
CCR5 protein = assay: Thermal stability of protein test (CPM-assay); format: binding; conditions: thermal stability of CCR5 protein with compound, CPM dye
Excerpt: Experimental theory: many cysteines are present in CCR5 protein sequence. Cysteines located in loop region form disulfide bonds to stabilize the tertiary structure of the protein. Some free cysteines in reduced state are located in the transmembrane region. Under excitation by incident light of 387 nm, the combination of free sulfhydryl and fluorescent dye CPM can emit excitation light of 436 nm. […] The free sulfhydryls originally located in the transmembrane region expose and combine with the fluorescent dye. And then the detector will detect changes in signal enhancement. Therefore, the thermal stability of membrane proteins can be determined according to the temperature (Tm) at the midpoint of changes in signal intensity.
Experimental steps: Upon preliminary purification, the obtained protein solution was transferred into a small concentration tube (100 kd, 500 ul) for concentration (1000 rcf, 12 min, 4° C.). After centrifugation, the concentration tube was taken out and flicked to prevent protein coagulation due to high local concentration. The final concentrated volume was about 50 μl. 117 μl of purified solution (volume is suitable to make the total volume up to 120 μl), 1 μl fluorescent dye cpm (in-house prepared) and 2 μl of concentrated protein solution (the amount of added protein is 3-5 μg according to the calculated concentration of the protein solution and the concentrated volume) were added to 2 ml Ependorf tube and incubated at room temperature for 20 min. And then the mixture was added to the cuvette (Qwan) and put in the testing equipment Cary, wherein the surface of the frosted glass faced out. The temperature was set in the range of 4-90° C. with 1° C. increase per minute and the program was run. Tm value can be obtained by processing the data and graph with a mapping software and can be used to compare the difference of protein thermal stability under different conditions.

Sequence of hERG (Q12809 whole entry): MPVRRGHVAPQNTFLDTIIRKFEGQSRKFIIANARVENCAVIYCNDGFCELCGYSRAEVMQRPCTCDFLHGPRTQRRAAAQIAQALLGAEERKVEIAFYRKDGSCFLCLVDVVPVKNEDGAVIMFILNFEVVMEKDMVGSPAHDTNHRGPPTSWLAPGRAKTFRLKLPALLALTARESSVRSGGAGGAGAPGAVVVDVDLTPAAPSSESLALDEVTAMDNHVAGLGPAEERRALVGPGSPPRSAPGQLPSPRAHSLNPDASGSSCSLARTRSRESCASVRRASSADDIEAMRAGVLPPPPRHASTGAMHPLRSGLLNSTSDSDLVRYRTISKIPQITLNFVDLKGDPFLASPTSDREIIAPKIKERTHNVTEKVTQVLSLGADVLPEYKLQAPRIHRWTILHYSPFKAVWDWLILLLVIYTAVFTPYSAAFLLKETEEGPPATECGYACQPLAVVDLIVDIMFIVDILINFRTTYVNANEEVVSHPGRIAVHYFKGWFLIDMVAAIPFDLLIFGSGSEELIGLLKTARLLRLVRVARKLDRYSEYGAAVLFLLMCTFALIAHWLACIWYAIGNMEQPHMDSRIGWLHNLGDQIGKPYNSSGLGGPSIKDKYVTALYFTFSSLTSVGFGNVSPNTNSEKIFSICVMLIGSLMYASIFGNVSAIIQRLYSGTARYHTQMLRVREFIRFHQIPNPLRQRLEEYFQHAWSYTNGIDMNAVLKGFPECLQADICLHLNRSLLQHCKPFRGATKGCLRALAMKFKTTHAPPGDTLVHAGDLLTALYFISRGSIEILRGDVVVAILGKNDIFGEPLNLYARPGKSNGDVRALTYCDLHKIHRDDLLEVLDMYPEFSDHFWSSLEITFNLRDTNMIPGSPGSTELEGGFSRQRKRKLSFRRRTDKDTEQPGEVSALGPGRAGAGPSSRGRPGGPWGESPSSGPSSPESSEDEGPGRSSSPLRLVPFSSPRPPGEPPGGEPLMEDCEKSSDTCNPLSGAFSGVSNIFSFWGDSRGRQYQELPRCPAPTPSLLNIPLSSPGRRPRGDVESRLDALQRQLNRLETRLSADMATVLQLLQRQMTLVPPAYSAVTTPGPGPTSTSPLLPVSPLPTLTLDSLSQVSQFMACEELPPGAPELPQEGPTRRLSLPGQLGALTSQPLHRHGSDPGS
Sequence of CCR5 (P51681 whole entry): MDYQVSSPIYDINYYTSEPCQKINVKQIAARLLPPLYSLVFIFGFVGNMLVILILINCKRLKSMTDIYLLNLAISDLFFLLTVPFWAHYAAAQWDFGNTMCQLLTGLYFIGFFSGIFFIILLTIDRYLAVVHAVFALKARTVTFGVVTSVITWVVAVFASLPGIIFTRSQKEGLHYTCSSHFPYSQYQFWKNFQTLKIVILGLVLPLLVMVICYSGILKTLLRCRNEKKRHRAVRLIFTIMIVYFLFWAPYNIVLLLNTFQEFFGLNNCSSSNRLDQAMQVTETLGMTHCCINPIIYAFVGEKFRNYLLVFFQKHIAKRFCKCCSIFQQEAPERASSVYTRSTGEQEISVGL

| SMILES | hERG inhibition activity in words, versus positive control compounds (hERG) | CC50 [3] | IC50 (CCR5) | EC50 (HIV-1SF162 virus strain) | therapeutic index (TI) (HIV-1SF162 virus strain) | Tm (° C.) (CCR5 protein) | also measured |
| --- | --- | --- | --- | --- | --- | --- | --- |
| COS(C)(=O)=O [Methyl methanesulfonate, reference compound] | – | – | – | – | – | – | number of revertant colonies (Mean ± SD) [1]: 1231 ± 146.1 |
| CC(=O)N[C@@H](CCN1C2CCC1CC(n1c(C)nnc1C(C)C)C2)c1cccs1 (stereo partly drawn) [Compound 12, N-[(1S)-3-[exo-3-(3-isopropyl-5-methyl-4H-1,2,4-triazol-4-yl)-8-azabicyclo[3.2.1]octane-8-yl]-1-(thiophen-2-yl)propyl]acetamide] | better that those of positive control compounds | – | – | – | – | – | – |
| O=[N+]([O-])c1ccc2c(c1)Cc1ccccc1-2 [2-Nitroflucrene, reference compound] | – | – | – | – | – | – | number of revertant colonies (Mean ± SD) [2]: 999 ± 145.2 |
| Cc1sc([C@H](CCN2C3CCC2CC(n2c(C)nnc2C(C)C)C3)NC(=O)C2CCC(F)(F)CC2)c(C)c1C (stereo partly drawn) [Compound 103, 4,4-difluoro-N-[(1S)-3-[exo-3-(3-isopropyl-5-methyl-4H-1,2,4-triazol-4-yl)-8-azabicyclo[3.2.1]octane-8-yl]-1-(3,4,5-trimethylthiophen-2-yl)propyl]cyclohexane-1-carboxamide] | – | – | – | – | – | – | IC50 (hERG): 3470 nM |
| Cc1nnc(C(C)C)n1C1CC2CCC(C1)N2CC[C@H](NC(=O)C1CCCCC1)c1cccnc1 (stereo partly drawn) [Compound 8, N-[(1S)-3-[exo-3-(3-isopropyl-5-methyl-4H-1,2,4-triazol-4-yl)-8-azabicyclo[3.2.1]octane-8-yl]-1-(pyridin-3-yl)propyl]cyclohexane-1-carboxamide] | better that those of positive control compounds | > 100 µg/mL | 21.9 nM | 2.69 µg/mL (≈ 5.62 µM) | >37.17 | 60.61 °C | – |
| Cc1nnc(C(C)C)n1C1CC2CCC(C1)N2CC[C@H](NC(=O)C1CCCC1)c1cccnc1 (stereo partly drawn) [Compound 10, N-[(1S)-3-[exo-3-(3-isopropyl-5-methyl-4H-1,2,4-triazol-4-yl)-8-azabicyclo[3.2.1]octane-8-yl]-1-(pyridin-3-yl)propyl]cyclopentane-1-carboxamide] | – | > 100 µg/mL | 36.6 nM | 1.42 µg/mL (≈ 3.06 µM) | >70.42 | 63.21 °C | – |
